Data taken from article PMC5799307, “Creation of a long-acting nanoformulated dolutegravir” (Nature Communications, 2018).
Read-outs that look alike come from different tables or passages of the source.

How the values were obtained:
Type in all cases: cell-based
[1] = tested on: HIV-1ADA; assay: IC50 by HIV-1 RT activity in HIV-1ADA-infected MDM; conditions: Human immunodeficiency virus 1, 240 h, HIV-1ADA MOI 0.1, RT activity day 10
Procedure: (§1) Antiretroviral efficacy was determined by measurements of HIV reverse transcriptase (RT) activity. For IC50 determination, MDM were exposed to various concentrations (0.01–1000 nM) of DTG or MDTG for 1 h followed by challenge with HIV-1ADA[60] at a multiplicity of infection (MOI) of 0.1 infectious particles per cell for 4 h. Following viral challenge, cells were washed and incubated with the same concentration of drug used before infection for an additional 10 days in culture. Culture fluids were collected on day 10 for the measurement of RT activity as previously described[16],[62],[63]. To assess antiretroviral efficacy, MDM were treated with 100 μM DTG, MDTG, NDTG, or NMDTG as described above for 8 h. After treatment, cells were washed with PBS and cultured with fresh media, with half-media exchanges every other day. At 0, 4, 12 h, and 1, 5, 10, 15, 20, 25, or 30 days after treatment, cells were challenged with HIV-1ADA at an MOI of 0.1 infectious particles per cell for 16 h. After viral infection, the cells were cultured an additional 10 days with half-media exchanges every other day. Culture fluids were collected for measurement of RT activity as previously described[16],[62],[63]. Cells were fixed with 4% PFA and expression of HIV-1p24 antigen was determined by immunocytochemistry.

[2] = tested on: HIV-1ADA; assay: Antiretroviral efficacy in MDM challenged with HIV-1ADA after single 8-h treatment (RT activity, p24)
Procedure: as §1
For immunocytochemistry, cells were washed with PBS and fixed with 4% PFA at room temperature for 15 min, followed by an additional washing with PBS. The cells were treated with a blocking/permeabilizing solution (1% Triton X-100, 10% BSA in PBS) and incubated with mouse monoclonal antibody to HIV-1p24 (1:100) for 16 h at 4 °C. Cells were washed with PBS, and polymer-based HRP-conjugated anti-mouse secondary was added for 30 min at room temperature. Cells were then washed with PBS and developed with DAB. Nuclei were counterstained with Mayer’s hematoxylin, and cells were visualized with a ×20 objective on a Nikon Eclipse E800 microscope (Melville, NY) with Nuance EX multispectral imaging system (PerkinElmer, Hopkinton, MA)[16],[59].

[3] = tested on: human monocyte-derived macrophages (MDM); conditions: 100 µM
Procedure: Human monocytes were obtained by leukapheresis from HIV-1/2 and hepatitis B seronegative donors, and then purified by counter-current centrifugal elutriation. Human monocytes were plated in a 12-well plate at a density of 1.0 × 10^6 cells per well using DMEM supplemented with 10% heat-inactivated pooled human serum, 1% glutamine, 10 µg/mL ciprofloxacin, and 50 µg/mL gentamicin. Cells were maintained at 37 °C in a 5% CO2 incubator. After 7 days of differentiation in the presence of 1000 U/mL recombinant human macrophage colony stimulating factor (MCSF), MDM were treated with 100 μM DTG, MDTG, NDTG, or NMDTG. Native drugs were added in DMSO (0.1% v/v). Uptake of drug was assessed by measurements of intracellular drug concentrations at 2, 4, 8, 12, 16, or 24 h after treatment. […] For both studies, adherent MDM were washed with PBS, then scraped into PBS, and counted at indicated time points using an Invitrogen Countess Automated Cell Counter (Carlsbad, CA). […] DTG and MDTG drug content was determined by UPLC-UV/Vis as described above. Release was assessed by collecting culture media after 4-h of drug treatment on days 1, 3, 5, 7, 10, 12, and 14. […] Supernatants were dried using a ThermoScientific Savant Speed Vacuum (Waltham, MA), extracted drug resuspended in 150 µL HPLC-grade methanol, and drug content was determined by UPLC-UV/Vis. […]

Row | SMILES | IC50 [1] | inhibition at 100 µM ([2]; Human immunodeficiency virus 1, single 8-h treatment, read-out: maximal inhibition of HIV-1 RT activity) | time after drug treatment for which efficacy was observed ([2]; single 8-h treatment, 100 µM) | drug retained within MDM ([3]; 24 h) | inhibition at 100 µM ([2]; Human immunodeficiency virus 1, challenge at day 30 after drug loading, read-out: viral inhibition) | beginning of viral breakthrough ([2]; days after single 8-h treatment, 100 µM) | maximum cellular drug level ([3]; 4 h)
1 | C[C@@H]1CCO[C@H]2Cn3cc(C(=O)NCc4ccc(F)cc4F)c(=O)c(O)c3C(=O)N12 [DTG, dolutegravir] | 56.7 nM | 65% | up to 4 h | < 0.1 µg/10^6 cells |  |  | 
2 | CCCCCCCCCCCCCC(=O)Oc1c2n(cc(C(=O)NCc3ccc(F)cc3F)c1=O)C[C@@H]1OCC[C@@H](C)N1C2=O [MDTG] | 62.5 nM |  |  |  | 83% | 20 days | 16.7 µg/10^6 cells
